Test results: patent US12564586B2, “Kappa opiod receptor antagonists for treating pain-related sleep disorders” (ARIZONA BOARD OF REGENTS ON BEHALF OF THE UNIVERSITY OF …, priority 2020, dated 2026)
Entries after “also recorded” stand apart in the source; their conditions may differ.

What was measured:
[1] = tested on: PSNL mice (chronic neuropathic pain model); test: EEG/EMG sleep evaluation in the chronic pain model induced by partial sciatic nerve ligation (PSNL); format: in vivo, C57BL/6J mice; settings: for duration of non-REM sleep (sleep fragmentation): 6-hour intervals; for components of pain-related sleep disturbance (sleep time loss, fragmentation of sleep, daytime sleepiness): mouse model of chronic neuropathic pain, summary statement
sham surgery mice = test: EEG/EMG sleep evaluation in sham surgery mice; format: in vivo, C57BL/6J mice
Procedure: Norbinaltorphimine (nor-BNI) was dissolved in 0.9% saline to 10 mg/kg just before injection. C57BL/6J mice received intraperitoneal injection of nor-BNI or vehicle (0.9% saline) 30 minutes before EEG/EMG record at 10 days after partial sciatic nerve ligation (PSNL) surgery (FIG. 2A). CYM-53093 was synthesized as described previously by Guerrero et al. It was dissolved in DMSO, tween and saline at a ratio of 1:1:8. C57BL/6J mice were implanted with a micro-osmotic pump under the skin at 8 days after PSNL surgery and received continuous infusion of CYM-53093 (10 mg/kg/day) or vehicle. Mice had surgical recovery for 1 day after pump implantation followed by EEG/EMG record for 5 days (FIG. 3A).
EEG/EMG recording head-mount implantation was done under 2-5% isoflurane anesthesia, mice were implanted with EEG and EMG electrodes for polysomnographic recordings (Pinnacle Technology, Oregon, USA) as described previously by Ito et al. Recording was done in awake animals after acclimatization using EEG/EMG mouse sleep equipment from Pinnacle Technology. The collected EEG/EMG data were analyzed by software (Sleepsign; Kissei Comtec, Japan). The vigilance of every 5-second epoch was automatically classified into three stages, i.e., wakefulness, REM and non-REM sleep, according to the standard criteria. As a final step, defined sleep-wake stages were examined visually and corrected, if necessary. The vigilance states were assessed as follows: 1) wakefulness was defined by a high EMG amplitude, low EEG amplitude; 2) REM sleep was defined by a low EMG amplitude, low EEG amplitude, and high 0 wave (5.0-10.0 Hz) activity; and 3) non-REM sleep was defined by a low EMG amplitude, high EEG amplitude, and high 8 wave (0.65-4.5 Hz) activity.
To investigate the effect of the long acting KOR antagonist, nor-BNI, on sleep disruption in preclinical model of chronic pain, the percentage of sleep time for 24 hours between the groups administered nor-BNI or vehicle 10 days after partial sciatic nerve ligation (PSNL), and baseline before PSNL surgery were compared (FIG. 2A). The sham groups were also evaluated in the same time series as PSNL groups. […] First, in order to evaluate the sleep-wake cycle of each group, the changes in the percentage of sleep time were examined every two hours. […] Secondly, the percentage of total sleep (FIG. 2D), non-REM sleep (FIG. 2E), and REM sleep (FIG. 2F) were evaluated and time in the light phase and dark phase were evaluated separately. […] Then, duration of awake and non-REM sleep was evaluated at 6-hour intervals (early and late light phase and early and late dark phase), and compared between baseline, sham/vehicle group, PSNL/vehicle group, sham/nor-BNI group, and PSNL/nor-BNI group.

PSNL mice = test: von Frey test (paw withdrawal threshold, tactile allodynia); format: in vivo; settings: nor-BNI, naïve or injured (PSNL) animals
[2] = PSNL group, nor-BNI 10 mg/kg i.p.
[3] = sham animals, nor-BNI treated vs vehicle treated
[4] = PSNL, continuous infusion of CYM-53093 10 mg/kg/day, 10 mg/kg/day

| SMILES | REM sleep time [1, 2] | duration of wakefulness during the early half of the dark phase [1, 2] | non-REM sleep time [1, 2] | percentage of total sleep ([1]; PSNL group, nor-BNI 10 mg/kg i.p. 10 days after PSNL, light phase) | duration of non-REM sleep (sleep fragmentation) [1, 2] | duration of non-REM sleep (sleep fragmentation) ([1]; PSNL group, nor-BNI 10 mg/kg i.p., listed as Nor-BNI) | sleep time (percentage of sleep time every two hours) ([1]; PSNL group, nor-BNI 10 mg/kg i.p., vs baseline before PSNL surgery) | components of pain-related sleep disturbance (sleep time loss, fragmentation of sleep, daytime sleepiness) [1] | power spectrum during non-REM sleep ([1]; nor-BNI 10 mg/kg i.p.) | percentage of non-REM sleep (sham surgery mice; [3]) | percentage of total sleep (sham surgery mice; [3]) | sleep time (percentage of sleep time every two hours) (sham surgery mice; sham groups, nor-BNI 10 mg/kg i.p.) | REM sleep time (sham surgery mice; sham mice, nor-BNI 10 mg/kg i.p.) | evoked (mechanical/tactile) allodynia, paw withdrawal threshold (PSNL mice) | fragmentation of non-REM sleep ([1]; PSNL, continuous infusion of CYM-53093 10 mg/kg/day) | sleep time ([1]; PSNL, continuous infusion of CYM-53093 10 mg/kg/day by micro-osmotic pump, 5-day recording, 10 mg/kg/day) | power density of δ wave during non-REM sleep ([1]; PSNL, continuous infusion of CYM-53093 10 mg/kg/day, test day 4, 10 mg/kg/day) | REM sleep [1, 4] | duration of wakefulness at the first half of the dark phase [1, 4] | non-REM sleep [1, 4] |
| --- | --- | --- | --- | --- | --- | --- | --- | --- | --- | --- | --- | --- | --- | --- | --- | --- | --- | --- | --- | --- |
| Oc1ccc2c3c1O[C@H]1c4[nH]c5c(c4C[C@@]4(O)[C@@H](C2)N(CC2CC2)CC[C@]314)C[C@@]1(O)[C@H]2Cc3ccc(O)c4c3[C@@]1(CCN2CC1CC1)[C@H]5O4 [nor-BNI, Norbinaltorphimine] | did not improve REM sleep time | improved the inability to stay awake during the dark (active) time of the day; also recorded: tended to extend this duration somewhat, it was not significant | increased non-REM sleep time | 71.4±1.3% | improved sleep fragmentation in PSNL during non-REM sleep | improved this fragmented sleep by PSNL | normalized the deficit of sleep time of the partial sciatic nerve ligation (PSNL) group to the same as baseline; also recorded: normalized the reduction of sleep time of the PSNL group almost to the same level as baseline | improved several important components of pain-related sleep disturbance | did not change the power spectrum; also recorded: unchanged in both groups | no significant difference in the percentage of total sleep and non-REM sleep | no significant difference in the percentage of total sleep and non-REM sleep | had no effect in the sham surgery group; also recorded: had no significant effect on sleep time | significantly reduced REM sleep time in sham mice | did not alter mechanical allodynia in naïve or injured animals; also recorded: did not influence the evoked allodynia | – | – | – | – | – | – |
| CCc1cc(F)c2nc(N3CCC(NC4CCOCC4)CC3)c(-c3nc(C)no3)c(C)c2c1 [CYM53093] | – | – | – | – | – | – | – | improved several important components of pain-related sleep disturbance | – | – | – | – | – | – | normalized fragmentation of non-REM sleep | normalized the reduction of sleep time up until day 4; also recorded: normalized the reduction of sleep time and the effect lasted at least until day 4 | no change in the power density; also recorded: did not change | did not improve REM sleep | improved non-REM sleep, wakefulness during the first part of the dark phase; also recorded: improved short duration of wakefulness at the first half of the dark phase | improved non-REM sleep; also recorded: mainly influenced non-REM sleep |
